Reference: patent US12180187B2, “1-phenyl-5-azinylpyrazolyl-3-oxyalkyl acids and their use for controlling unwanted plant growth” (BAYER AKTIENGESELLSCHAFT, priority 2019, dated 2024)

Tests used:
AMARE [1] = assay: Pre-emergence action against AMARE, 1280 g/ha; type: in vivo, Amaranthus retroflexus; conditions: scored visually after about 3 weeks vs untreated controls (100% = plants have died)
How it was run: (§1)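 Percent herbicidal effect, judged by eye relative to untreated pots around 3 weeks after soil-surface treatment. Application: formulated compound in water, 600 L/ha, 0.5% additive, on soil over sown seeds; greenhouse.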

MATIN [2] = assay: Post-emergence action against MATIN, 1.28 kg/ha; type: in vivo, Tripleurospermum inodorum (Matricaria inodora); conditions: dosage 1280 g/ha, visual rating about 3 weeks after treatment vs untreated controls (100% = plants died)
How it was run: (§2)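 Foliar application at the one-leaf stage: compound as WP or EC in water with 0.5% additive, sprayed at 600 L/ha. Plants are kept about 3 weeks in the greenhouse, then % herbicidal action is estimated visually (100% = death).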

ECHCG [3] = assay: Post-emergence action against ECHCG, 1.28 kg/ha; type: in vivo, Echinochloa crus-galli; conditions: dosage 1280 g/ha, visual rating about 3 weeks after treatment vs untreated controls
Procedure: (§3) • a) Seeds of mono- and dicotyledonous weed plants are placed in plastic pots in sandy loam soil (twin sowing with one species each of mono- or dicotyledonous weed plants per pot), covered with soil and cultivated in a greenhouse under controlled growth conditions. 2 to 3 weeks after sowing, the test plants are treated at the one-leaf stage. The compounds of the invention, formulated in the form of wettable powders (WP) or as emulsion concentrates (EC), are applied to the green parts of the plants as aqueous suspension or emulsion with addition of 0.5% additive at a water application rate equivalent to 600 litres per hectare. After the test plants have been kept in the greenhouse under optimum growth conditions for about 3 weeks, the activity of the preparations is rated visually in comparison to untreated controls. For example, 100% activity=the plants have died, 0% activity=like control plants. As shown by the results, compounds of the general formula (I) of the invention, in post-emergence treatment, have very good herbicidal efficacy (90% to 100% herbicidal action) against harmful plants such as Abutilon theophrasti, Digitaria sanguinalis, Echinochloa crus-galli, Matricaria inodora, Poa annua, at an application rate of 1.28 kg of active substance per hectare.

LOLRI [4] = assay: Post-emergence action against LOLRI, 1.28 kg/ha; type: in vivo, Lolium rigidum; conditions: dosage 1280 g/ha, visual rating about 3 weeks after treatment vs untreated controls
Procedure: as §3

ECHCG [5] = assay: Pre-emergence action against ECHCG, 1280 g/ha; type: in vivo, Echinochloa crus-galli; conditions: visual scoring after about 3 weeks vs untreated controls, 100% = plants have died, 0% = like control plants
How it was run: as §1

DIGSA [6] = assay: Pre-emergence action against DIGSA, 1280 g/ha; type: in vivo, Digitaria sanguinalis; conditions: visual scoring after about 3 weeks vs untreated controls, 100% = plants have died, 0% = like control plants
How it was run: as §1

DIGSA [7] = assay: Post-emergence action against DIGSA, 1.28 kg/ha; type: in vivo, Digitaria sanguinalis; conditions: dosage 1280 g/ha, visual rating about 3 weeks after treatment vs untreated controls
How it was run: as §2

AMARE [8] = assay: Post-emergence action against AMARE, 1.28 kg/ha; type: in vivo, Amaranthus retroflexus; conditions: dosage 1280 g/ha, visual rating about 3 weeks after treatment vs untreated controls (100% = plants died)
How it was run: as §2

STEME [9] = assay: Pre-emergence action against STEME, 1280 g/ha; type: in vivo, Stellaria media; conditions: scored visually after about 3 weeks vs untreated controls (100% = plants have died)
How it was run: as §1

POAAN [10] = assay: Pre-emergence action against POAAN, 1280 g/ha; type: in vivo, Poa annua; conditions: visual scoring after about 3 weeks vs untreated controls, 100% = plants have died, 0% = like control plants
How it was run: as §1

POAAN [11] = assay: Post-emergence action against POAAN, 1.28 kg/ha; type: in vivo, Poa annua; conditions: dosage 1280 g/ha, visual rating about 3 weeks after treatment vs untreated controls
How it was run: as §2

ALOMY [12] = assay: Pre-emergence action against ALOMY, 1280 g/ha; type: in vivo, Alopecurus myosuroides; conditions: visual scoring after about 3 weeks vs untreated controls, 100% = plants have died, 0% = like control plants
How it was run: as §1

MATIN [13] = assay: Pre-emergence action against MATIN, 1280 g/ha; type: in vivo, Tripleurospermum inodorum (Matricaria inodora); conditions: scored visually after about 3 weeks vs untreated controls (100% = plants have died)
How it was run: as §1

SETVI [14] = assay: Pre-emergence action against SETVI, 1280 g/ha; type: in vivo, Setaria viridis; conditions: visual scoring after about 3 weeks vs untreated controls, 100% = plants have died, 0% = like control plants
How it was run: as §1

LOLRI [15] = assay: Pre-emergence action against LOLRI, 1280 g/ha; type: in vivo, Lolium rigidum; conditions: visual scoring after about 3 weeks vs untreated controls, 100% = plants have died, 0% = like control plants
How it was run: as §1

VERPE [16] = assay: Pre-emergence action against VERPE, 1280 g/ha; type: in vivo, Veronica persica; conditions: scored visually after about 3 weeks vs untreated controls (100% = plants have died)
How it was run: as §1

VERPE [17] = assay: Post-emergence action against VERPE, 1.28 kg/ha; type: in vivo, Veronica persica; conditions: dosage 1280 g/ha, visual rating about 3 weeks after treatment vs untreated controls (100% = plants died)
How it was run: as §2

SETVI [18] = assay: Post-emergence action against SETVI, 1.28 kg/ha; type: in vivo, Setaria viridis; conditions: dosage 1280 g/ha, visual rating about 3 weeks after treatment vs untreated controls
Procedure: as §3

ALOMY [19] = assay: Post-emergence action against ALOMY, 1.28 kg/ha; type: in vivo, Alopecurus myosuroides; conditions: dosage 1280 g/ha, visual rating about 3 weeks after treatment vs untreated controls
How it was run: as §2

STEME [20] = assay: Post-emergence action against STEME, 1.28 kg/ha; type: in vivo, Stellaria media; conditions: dosage 1280 g/ha, visual rating about 3 weeks after treatment vs untreated controls (100% = plants died)
How it was run: as §2

ABUTH = assay: Post-emergence action against ABUTH, 1.28 kg/ha; type: in vivo, Abutilon theophrasti; conditions: dosage 1280 g/ha, visual rating about 3 weeks after treatment vs untreated controls (100% = plants died)
Procedure: as §3

Compound: Cc1ccc(-n2nc(OCC(=O)O)c(Br)c2-c2ccc(F)nc2)cc1 [VII-067]
- Pre-emergence action against AMARE (AMARE [1]): 100%
- Post-emergence action against MATIN (MATIN [2]): 90%
- Post-emergence action against ECHCG (ECHCG [3]): 100%
- Post-emergence action against LOLRI (LOLRI [4]): 100%
- Pre-emergence action against ECHCG (ECHCG [5]): 100%
- Pre-emergence action against DIGSA (DIGSA [6]): 100%
- Post-emergence action against DIGSA (DIGSA [7]): 100%
- Post-emergence action against AMARE (AMARE [8]): 100%
- Pre-emergence action against STEME (STEME [9]): 100%
- Pre-emergence action against POAAN (POAAN [10]): 100%
- Post-emergence action against POAAN (POAAN [11]): 100%
- Pre-emergence action against ALOMY (ALOMY [12]): 100%
- Pre-emergence action against MATIN (MATIN [13]): 100%
- Pre-emergence action against SETVI (SETVI [14]): 100%
- Pre-emergence action against LOLRI (LOLRI [15]): 100%
- Pre-emergence action against VERPE (VERPE [16]): 100%

Compound: O=C(COc1nn(-c2ccccc2F)c(-c2ccc(F)nc2)c1Br)OCC1CCCO1 (centres unmarked) [VII-090]
- Pre-emergence action against AMARE (AMARE [1]): 100%
- Post-emergence action against MATIN (MATIN [2]): 90%
- Post-emergence action against ECHCG (ECHCG [3]): 100%
- Post-emergence action against LOLRI (LOLRI [4]): 90%
- Pre-emergence action against ECHCG (ECHCG [5]): 100%
- Pre-emergence action against DIGSA (DIGSA [6]): 100%
- Post-emergence action against DIGSA (DIGSA [7]): 100%
- Pre-emergence action against STEME (STEME [9]): 100%
- Pre-emergence action against POAAN (POAAN [10]): 100%
- Post-emergence action against POAAN (POAAN [11]): 100%
- Pre-emergence action against ALOMY (ALOMY [12]): 100%
- Pre-emergence action against MATIN (MATIN [13]): 100%
- Pre-emergence action against SETVI (SETVI [14]): 100%
- Post-emergence action against VERPE (VERPE [17]): 100%
- Pre-emergence action against LOLRI (LOLRI [15]): 100%
- Pre-emergence action against VERPE (VERPE [16]): 100%

Compound: Cc1ccccc1-n1nc(OCC(=O)O)c(I)c1-c1ccc(F)nc1 [VII-097]
- Pre-emergence action against AMARE (AMARE [1]): 100%
- Post-emergence action against MATIN (MATIN [2]): 90%
- Post-emergence action against SETVI (SETVI [18]): 90%
- Post-emergence action against ECHCG (ECHCG [3]): 100%
- Post-emergence action against LOLRI (LOLRI [4]): 90%
- Post-emergence action against ALOMY (ALOMY [19]): 100%
- Pre-emergence action against ECHCG (ECHCG [5]): 100%
- Pre-emergence action against DIGSA (DIGSA [6]): 100%
- Post-emergence action against DIGSA (DIGSA [7]): 100%
- Pre-emergence action against STEME (STEME [9]): 100%
- Pre-emergence action against POAAN (POAAN [10]): 100%
- Post-emergence action against POAAN (POAAN [11]): 100%
- Pre-emergence action against MATIN (MATIN [13]): 90%
- Pre-emergence action against SETVI (SETVI [14]): 100%
- Post-emergence action against STEME (STEME [20]): 90%
- Post-emergence action against VERPE (VERPE [17]): 100%
- Pre-emergence action against LOLRI (LOLRI [15]): 100%
- Pre-emergence action against VERPE (VERPE [16]): 100%

Compound: COC(=O)C(C)Oc1nn(-c2ccccc2)c(-c2ccnc(F)c2)c1Cl (centres unmarked) [VIII-007]
- Pre-emergence action against AMARE (AMARE [1]): 100%
- Post-emergence action against ABUTH (ABUTH): 90%
- Post-emergence action against MATIN (MATIN [2]): 90%
- Post-emergence action against ECHCG (ECHCG [3]): 90%
- Post-emergence action against LOLRI (LOLRI [4]): 100%
- Pre-emergence action against ECHCG (ECHCG [5]): 100%
- Pre-emergence action against DIGSA (DIGSA [6]): 90%
- Post-emergence action against DIGSA (DIGSA [7]): 90%
- Post-emergence action against AMARE (AMARE [8]): 100%
- Pre-emergence action against STEME (STEME [9]): 90%
- Pre-emergence action against POAAN (POAAN [10]): 100%
- Post-emergence action against POAAN (POAAN [11]): 100%
- Pre-emergence action against MATIN (MATIN [13]): 90%
- Pre-emergence action against SETVI (SETVI [14]): 100%
- Post-emergence action against STEME (STEME [20]): 100%
- Post-emergence action against VERPE (VERPE [17]): 100%
- Pre-emergence action against LOLRI (LOLRI [15]): 100%
- Pre-emergence action against VERPE (VERPE [16]): 100%
